The values below come from the supplement of paper PMC10307832.

Experiment in all cases: relative viability (nuclei count vs DMSO), 5 days (fraction); higher = more cells survive
Compound in the assay “Ponatinib + Palbociclib”: Cc1ccc(C(=O)Nc2ccc(CN3CCN(C)CC3)c(C(F)(F)F)c2)cc1C#Cc1cnc2cccnn12 [Ponatinib] + CC(=O)c1c(C)c2cnc(Nc3ccc(N4CCNCC4)cn3)nc2n(C2CCCC2)c1=O [Palbociclib] (partner 0.5 µM)
The procedure, abridged:
(§1)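 Each reported value is a median over duplicate plates. It expresses relative viability: treated-well nuclei count divided by vehicle-well nuclei count. Lung cancer cell lines in 1536-well plates were dosed by pin tool a day after seeding, alone with one drug or with a fixed anchor-drug dose plus five library-drug doses (not always all listed) in √10 steps, and nuclei were counted after 5 days.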

Compound in the assay “Pazopanib + Trametinib”: Cc1ccc(Nc2nccc(N(C)c3ccc4c(C)n(C)nc4c3)n2)cc1S(N)(=O)=O [Pazopanib] + CC(=O)Nc1cccc(-n2c(=O)n(C3CC3)c(=O)c3c(Nc4ccc(I)cc4F)n(C)c(=O)c(C)c32)c1 [Trametinib] (partner 0.02 µM)
An outline of the steps: as §1

Compound in the assay “Pazopanib + Palbociclib”: Cc1ccc(Nc2nccc(N(C)c3ccc4c(C)n(C)nc4c3)n2)cc1S(N)(=O)=O [Pazopanib] + CC(=O)c1c(C)c2cnc(Nc3ccc(N4CCNCC4)cn3)nc2n(C2CCCC2)c1=O [Palbociclib] (partner 0.5 µM)
An outline of the steps:
as §1

Compound in the assay “Pazopanib + Pictilisib”: Cc1ccc(Nc2nccc(N(C)c3ccc4c(C)n(C)nc4c3)n2)cc1S(N)(=O)=O [Pazopanib] + CS(=O)(=O)N1CCN(Cc2cc3nc(-c4cccc5[nH]ncc45)nc(N4CCOCC4)c3s2)CC1 [Pictilisib] (partner 1 µM)
An outline of the steps:
as §1

As for NCI-H2126, the relative viability came out at 0.365 with Ponatinib + Palbociclib (first compound 0.002 µM); 0.34 in the assay with Ponatinib + Palbociclib (first compound 0.006325 µM); 0.374 in the assay with Ponatinib + Palbociclib (first compound 0.06325 µM); 0.333 with Ponatinib + Palbociclib (first compound 0.2 µM); 0.506 with Pazopanib + Trametinib (first compound 0.01 µM); 0.503 with Pazopanib + Trametinib (first compound 0.03162 µM). The relative viability was found to be 0.599 with Pazopanib + Trametinib (first compound 0.1 µM); 0.563 with Pazopanib + Trametinib (first compound 0.3162 µM); 0.577 with Pazopanib + Trametinib (first compound 1 µM); 0.337 with Pazopanib + Palbociclib (first compound 0.01 µM); 0.322 with Pazopanib + Palbociclib (first compound 0.03162 µM); 0.354 in the assay with Pazopanib + Palbociclib (first compound 0.1 µM). Moreover, the relative viability came out at 0.361 with Pazopanib + Palbociclib (first compound 0.3162 µM); 0.361 with Pazopanib + Palbociclib (first compound 1 µM); 0.443 with Pazopanib + Pictilisib (first compound 0.01 µM); 0.472 with Pazopanib + Pictilisib (first compound 0.03162 µM); 0.559 with Pazopanib + Pictilisib (first compound 0.1 µM); 0.444 in the assay with Pazopanib + Pictilisib (first compound 0.3162 µM). In addition, the relative viability in the assay with Pazopanib + Pictilisib (first compound 1 µM) came to 0.531.

Turning to NCI-H2170, the relative viability was determined as 0.361 with Ponatinib + Palbociclib (first compound 0.002 µM); 0.431 in the assay with Ponatinib + Palbociclib (first compound 0.006325 µM); 0.362 with Ponatinib + Palbociclib (first compound 0.06325 µM); 0.377 with Ponatinib + Palbociclib (first compound 0.2 µM); 0.909 in the assay with Pazopanib + Trametinib (first compound 0.01 µM); 0.909 with Pazopanib + Trametinib (first compound 0.03162 µM). In addition, the relative viability in the assay with Pazopanib + Trametinib (first compound 0.1 µM) amounted to 0.949; with Pazopanib + Trametinib (first compound 0.3162 µM), 0.97; with Pazopanib + Trametinib (first compound 1 µM), 0.919; with Pazopanib + Palbociclib (first compound 0.01 µM), 0.353; in the assay with Pazopanib + Palbociclib (first compound 0.03162 µM), 0.387; with Pazopanib + Palbociclib (first compound 0.1 µM) it was 0.445. For the same cell line, the relative viability in the assay with Pazopanib + Palbociclib (first compound 0.3162 µM) was 0.399; with Pazopanib + Palbociclib (first compound 1 µM), 0.393; in the assay with Pazopanib + Pictilisib (first compound 0.01 µM), 0.261; in the assay with Pazopanib + Pictilisib (first compound 0.03162 µM) it was 0.299; in the assay with Pazopanib + Pictilisib (first compound 0.1 µM), 0.315; in the assay with Pazopanib + Pictilisib (first compound 0.3162 µM) it was 0.354. In addition, the relative viability with Pazopanib + Pictilisib (first compound 1 µM) was found to be 0.317.

In the case of NCI-H2228, the relative viability with Ponatinib + Palbociclib (first compound 0.002 µM) is 0.587; with Ponatinib + Palbociclib (first compound 0.006325 µM) it was 0.647; with Ponatinib + Palbociclib (first compound 0.06325 µM) it was 0.728; with Ponatinib + Palbociclib (first compound 0.2 µM), 0.593; in the assay with Pazopanib + Trametinib (first compound 0.01 µM), 0.353; with Pazopanib + Trametinib (first compound 0.03162 µM), 0.501. Moreover, the relative viability was 0.425 with Pazopanib + Trametinib (first compound 0.1 µM); 0.32 with Pazopanib + Trametinib (first compound 0.3162 µM); 0.759 with Pazopanib + Trametinib (first compound 1 µM); 0.892 with Pazopanib + Palbociclib (first compound 0.01 µM); 0.75 with Pazopanib + Palbociclib (first compound 0.03162 µM); 0.848 in the assay with Pazopanib + Palbociclib (first compound 0.1 µM). Moreover, the relative viability with Pazopanib + Palbociclib (first compound 0.3162 µM) is 0.756; in the assay with Pazopanib + Palbociclib (first compound 1 µM), 0.779; with Pazopanib + Pictilisib (first compound 0.01 µM), 0.46; with Pazopanib + Pictilisib (first compound 0.03162 µM), 0.386; with Pazopanib + Pictilisib (first compound 0.1 µM) it was 0.328; with Pazopanib + Pictilisib (first compound 0.3162 µM), 0.393. For the same cell line, the relative viability with Pazopanib + Pictilisib (first compound 1 µM) is 0.511.

In the case of NCI-H2347, the relative viability with Ponatinib + Palbociclib (first compound 0.002 µM) stood at 0.504; in the assay with Ponatinib + Palbociclib (first compound 0.006325 µM), 0.441; in the assay with Ponatinib + Palbociclib (first compound 0.06325 µM), 0.451; in the assay with Ponatinib + Palbociclib (first compound 0.2 µM) it was 0.404; with Pazopanib + Trametinib (first compound 0.01 µM), 0.211; in the assay with Pazopanib + Trametinib (first compound 0.03162 µM) it was 0.281. The relative viability came out at 0.303 with Pazopanib + Trametinib (first compound 0.1 µM); 0.282 with Pazopanib + Trametinib (first compound 0.3162 µM); 0.281 with Pazopanib + Trametinib (first compound 1 µM); 0.422 with Pazopanib + Palbociclib (first compound 0.01 µM); 0.452 in the assay with Pazopanib + Palbociclib (first compound 0.03162 µM); 0.406 with Pazopanib + Palbociclib (first compound 0.1 µM). Besides, the relative viability worked out at 0.449 with Pazopanib + Palbociclib (first compound 0.3162 µM); 0.498 in the assay with Pazopanib + Palbociclib (first compound 1 µM); 0.513 with Pazopanib + Pictilisib (first compound 0.01 µM); 0.648 in the assay with Pazopanib + Pictilisib (first compound 0.03162 µM); 0.417 with Pazopanib + Pictilisib (first compound 0.1 µM); 0.601 with Pazopanib + Pictilisib (first compound 0.3162 µM). Moreover, in the assay with Pazopanib + Pictilisib (first compound 1 µM), the relative viability was 0.548.

Take NCI-H2405: the relative viability with Ponatinib + Palbociclib (first compound 0.002 µM) came to 0.487; with Ponatinib + Palbociclib (first compound 0.006325 µM) it was 0.476; in the assay with Ponatinib + Palbociclib (first compound 0.06325 µM), 0.501; with Ponatinib + Palbociclib (first compound 0.2 µM) it was 0.473; with Pazopanib + Trametinib (first compound 0.01 µM), 0.562; with Pazopanib + Trametinib (first compound 0.03162 µM), 0.672. Besides, the relative viability in the assay with Pazopanib + Trametinib (first compound 0.1 µM) stood at 0.666; with Pazopanib + Trametinib (first compound 0.3162 µM), 0.644; with Pazopanib + Trametinib (first compound 1 µM), 0.524; in the assay with Pazopanib + Palbociclib (first compound 0.01 µM), 0.467; with Pazopanib + Palbociclib (first compound 0.03162 µM) it was 0.531; in the assay with Pazopanib + Palbociclib (first compound 0.1 µM) it was 0.535. For the same cell line, the relative viability is 0.519 with Pazopanib + Palbociclib (first compound 0.3162 µM); 0.583 with Pazopanib + Palbociclib (first compound 1 µM); 0.321 in the assay with Pazopanib + Pictilisib (first compound 0.01 µM); 0.514 in the assay with Pazopanib + Pictilisib (first compound 0.03162 µM); 0.424 with Pazopanib + Pictilisib (first compound 0.1 µM); 0.583 with Pazopanib + Pictilisib (first compound 0.3162 µM). Moreover, the relative viability with Pazopanib + Pictilisib (first compound 1 µM) is 0.586.

NCI-H3122: the relative viability worked out at 0.194 with Ponatinib + Palbociclib (first compound 0.002 µM); 0.186 with Ponatinib + Palbociclib (first compound 0.006325 µM); 0.213 with Ponatinib + Palbociclib (first compound 0.06325 µM); 0.203 with Ponatinib + Palbociclib (first compound 0.2 µM); 0.248 in the assay with Pazopanib + Trametinib (first compound 0.01 µM); 0.256 with Pazopanib + Trametinib (first compound 0.03162 µM). The relative viability is 0.219 with Pazopanib + Trametinib (first compound 0.1 µM); 0.25 in the assay with Pazopanib + Trametinib (first compound 0.3162 µM); 0.251 with Pazopanib + Trametinib (first compound 1 µM); 0.194 in the assay with Pazopanib + Palbociclib (first compound 0.01 µM); 0.175 in the assay with Pazopanib + Palbociclib (first compound 0.03162 µM); 0.217 with Pazopanib + Palbociclib (first compound 0.1 µM). For the same cell line, the relative viability was found to be 0.189 in the assay with Pazopanib + Palbociclib (first compound 0.3162 µM); 0.241 with Pazopanib + Palbociclib (first compound 1 µM); 0.516 with Pazopanib + Pictilisib (first compound 0.01 µM); 0.638 in the assay with Pazopanib + Pictilisib (first compound 0.03162 µM); 0.689 in the assay with Pazopanib + Pictilisib (first compound 0.1 µM); 0.688 with Pazopanib + Pictilisib (first compound 0.3162 µM). In addition, the relative viability in the assay with Pazopanib + Pictilisib (first compound 1 µM) is 0.803.

As to PC-3 [JPC-3], the relative viability was 0.576 with Ponatinib + Palbociclib (first compound 0.006325 µM); 0.608 in the assay with Ponatinib + Palbociclib (first compound 0.06325 µM); 0.544 with Ponatinib + Palbociclib (first compound 0.2 µM); 0.686 with Pazopanib + Trametinib (first compound 0.03162 µM); 0.73 in the assay with Pazopanib + Trametinib (first compound 0.1 µM); 0.835 with Pazopanib + Trametinib (first compound 0.3162 µM). The relative viability in the assay with Pazopanib + Trametinib (first compound 1 µM) was found to be 0.65; in the assay with Pazopanib + Palbociclib (first compound 0.03162 µM), 0.556; in the assay with Pazopanib + Palbociclib (first compound 0.1 µM), 0.341; with Pazopanib + Palbociclib (first compound 0.3162 µM), 0.522; with Pazopanib + Palbociclib (first compound 1 µM), 0.519; with Pazopanib + Pictilisib (first compound 0.01 µM) it was 0.745. Moreover, the relative viability with Pazopanib + Pictilisib (first compound 0.03162 µM) came to 0.707; with Pazopanib + Pictilisib (first compound 0.1 µM) it was 0.808; with Pazopanib + Pictilisib (first compound 0.3162 µM), 0.73; with Pazopanib + Pictilisib (first compound 1 µM), 0.716.

Turning to PC-14, the relative viability with Ponatinib + Palbociclib (first compound 0.002 µM) stood at 0.464; with Ponatinib + Palbociclib (first compound 0.006325 µM), 0.533; in the assay with Ponatinib + Palbociclib (first compound 0.06325 µM) it was 0.73; with Ponatinib + Palbociclib (first compound 0.2 µM) it was 0.584; in the assay with Pazopanib + Trametinib (first compound 0.01 µM) it was 0.834; with Pazopanib + Trametinib (first compound 0.03162 µM) it was 0.775. Further, the relative viability came out at 0.896 with Pazopanib + Trametinib (first compound 0.1 µM); 1.09 in the assay with Pazopanib + Trametinib (first compound 0.3162 µM); 0.766 with Pazopanib + Trametinib (first compound 1 µM); 0.561 with Pazopanib + Palbociclib (first compound 0.01 µM); 0.585 with Pazopanib + Palbociclib (first compound 0.03162 µM); 0.568 in the assay with Pazopanib + Palbociclib (first compound 0.1 µM). Also, the relative viability with Pazopanib + Palbociclib (first compound 0.3162 µM) was determined as 0.719; with Pazopanib + Palbociclib (first compound 1 µM), 0.6; with Pazopanib + Pictilisib (first compound 0.01 µM), 0.64; with Pazopanib + Pictilisib (first compound 0.03162 µM), 0.612; with Pazopanib + Pictilisib (first compound 0.1 µM), 0.88; with Pazopanib + Pictilisib (first compound 0.3162 µM), 0.637. Moreover, the relative viability with Pazopanib + Pictilisib (first compound 1 µM) stood at 0.686.
